# Laboratory results published in publication PMC9046208, “Foldamers reveal and validate therapeutic targets associated with toxic α-synuclein self-assembly” (Nature Communications, 2022).
# Key:
# [1] = target: T1, αS2 seed-catalyzed aggregation (Homo sapiens, UniProt P37840, DEL15-23); assay: Seed-catalyzed ThT aggregation assay (10% WT αS seeds), αS2; assay type: biochemical; conditions: αS2, equimolar ratio
# T1 construct: made in house
# Description: Seed-catalyzed αS aggregation assay was performed similarly to a previously described protocol. Briefly, 100 μM monomeric WT αS solution (200 μL, in 1x PBS buffer) was placed into a ThermoMixer (Eppendorf, Hamberg, Germany) and shook for five days at a rate of […] and 37 °C. The solution was sonicated for 10 min and used as αS seeds. The seed-catalyzed aggregation of WT αS/ αS variants was performed by adding αS seeds (10% seeds, αS in monomeric concentration, v/v) into 140 μL of fresh 100 μM WT αS/ αS variants solution and aggregation was started with constant shaking at a rate of […] and 37 °C. The aggregation of proteins was monitored at the indicated times (See the main manuscript) using the above-mentioned method.
# The ThT aggregation assay for each protein (WT αS and αS variants) in the presence of SK-129 was carried out the above-mentioned method. SK-129 (from 10 mM stock solution in DMSO) was added at an equimolar ratio (1% DMSO, v/v) to the proteins at the start of the aggregation experiment. The concentration of DMSO was kept constant (1%, v/v) in protein (WT αS and αS variants), control, and protein+molecule solutions. The kinetic profiles of protein aggregation were processed using OriginPro software (Version 9.1). Kinetic curves were fit using a built-in sigmoidal fit in the OriginLab.
# [2] = target: T2, αS aggregation in the presence of LUVs (DOPS) (Homo sapiens, UniProt P37840); assay: Lipid (LUVs, DOPS) catalyzed αS aggregation, ThT; assay type: biochemical; conditions: equimolar ratio
# T2 construct: made in house; host or cells: Escherichia coli BL21(DE3), periplasm
# Description: The aggregation kinetics of αS was monitored using ThT fluorescence assay (λex = 450 nm and λem = 485 nm). To study the aggregation kinetics of αS, the ThT dye at a final concentration of 50 μM was added to 100 μM αS solution in the aggregation buffer (1 x PBS buffer) with and without various concentrations of SK-129 in a Costar black 96–well plate (Corning Inc., Kennebunk, ME). The small molecules were dissolved in dimethyl sulfoxide (DMSO; final DMSO concentration = 0.5%, v/v). The final volume in each well was 140 μL. The plate was incubated at 37 °C with 16 min shaking (434 rpm) and 44 min without shaking in an Infinite M200PRO plate reader (Tecan, Männedorf, Switzerland) and fluorescence was recorded after every hour. We used two methods to quantify the effect of molecules on the aggregation of αS; either we have reported the t50 (time required to reach 50% fluorescence of ThT), which was extracted by fitting the ThT curve as a sigmoidal fit or the absolute ThT fluorescence intensity was reported. […] In the second method, we determined the final ThT fluorescence intensity for the aggregation of αS/Aβ42(with or without ligands) as an average of three separate experiments. […]
# lipid-free and lipid-catalyzed aggregation of αS was monitored after 7 days. […]
# equimolar ratio after four days. The data were expressed as mean and the error bars report the […]
# [3] = Parallel artificial membrane permeability assay (PAMPA); assay type: in vitro ADME; conditions: 4% lecithin in dodecane; for permeability Pe: 1x PBS, 500 μM donor, RT, 18 h, UV absorbance
# Description: A parallel artificial membrane permeability assay (PAMPA) Kit (BioAssay Systems, Hayward, CA) was used to measure the membrane permeability of SK-129 according to the manufacturer’s protocol. Briefly, a 4% lecithin solution (LS) was prepared in dodecane and solubilized with constant sonication for 20 min. Then, 5 µL of LS was placed on the donor plate membranes. A 300 μL 1x PBS buffer was applied to the acceptor plate. The solutions of SK-129 and various permeability controls (Highly soluble, medium soluble and low soluble) molecules were added to donor plates (200 μL and 500 μM). The donor plate was placed in the acceptor plate and incubated at RT for 18 h. Then the solutions were removed from the acceptor plate and placed in a clear-bottom 96-well plate (Corning Inc., Corning, NY) and absorbance was recorded at 360 nm for SK-129 and 275 nm for standards. The permeability was calculated using Eq. 2:2 Pe=C×−ln1−ODA/ODEcm/s Where the permeability rate C is 7.72 × 10^−6, ODA is the absorbance of acceptor solution and ODE is absorbance of equilibrium standard.
compound,measurement,setting,value
COC(=O)c1cc(OCC(=O)O)c2cccc(NC(=O)c3cc(OC(C)C)c4cccc(NC(=O)c5cc(OCC(=O)O)c6cccc(NC(=O)c7cc(OC(C)C)c8cccc([N+](=O)[O-])c8n7)c6n5)c4n3)c2n1 [SK-129],effect on seed-catalyzed aggregation,[1],wholly suppressed
same,effect on lipid catalyzed aggregation of αS,[2],wholly inhibited
same,membrane permeation,[3],efficiently permeate cell membranes
same,permeability Pe,[3]; trial 1,4.75 ×10⁻⁶ cm/s
same,permeability Pe,[3]; trial 2,4.45 ×10⁻⁶ cm/s
same,permeability Pe,[3]; trial 3,4.64 ×10⁻⁶ cm/s
same,permeability Pe,[3]; trial 4,4.65 ×10⁻⁶ cm/s
same,permeability Pe,[3]; trial 5,4.64 ×10⁻⁶ cm/s
same,permeability Pe,[3]; trial 6,4.36 ×10⁻⁶ cm/s
same,permeability Pe,[3]; trial 7,4.67 ×10⁻⁶ cm/s
same,permeability Pe,[3]; trial 8,4.79 ×10⁻⁶ cm/s
